Patent US20240199587A1, “HETEROCYCLIC COMPOUNDS” (Hoffmann-La Roche Inc., priority 2021, published 2024)

Biological target: T1, MAGL (Homo sapiens, UniProt Q99685)
T1 sequence (Q99685 1-303): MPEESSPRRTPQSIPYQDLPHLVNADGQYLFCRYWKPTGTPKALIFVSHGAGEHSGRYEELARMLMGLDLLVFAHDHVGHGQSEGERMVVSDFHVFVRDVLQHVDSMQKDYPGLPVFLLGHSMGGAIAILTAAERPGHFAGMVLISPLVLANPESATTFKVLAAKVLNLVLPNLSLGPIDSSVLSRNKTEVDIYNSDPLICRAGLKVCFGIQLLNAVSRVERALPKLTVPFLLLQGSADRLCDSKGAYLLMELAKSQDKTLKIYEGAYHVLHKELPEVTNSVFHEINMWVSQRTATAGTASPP
Test: 2-AG assay (MAGL inhibitory activity, hydrolysis of 2-arachidonoylglycerol to arachidonic acid followed by mass spectrometry)
Assay type: biochemical
Details: 8 μM 2-arachidonoylglycerol, 15 min pre-incubation, 30 min incubation at RT, RapidFire MS readout
Outline: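 Arachidonic acid released from 8 μM 2-arachidonoylglycerol was quantified by online SPE triple-quadrupole MS (negative ESI, 303.1→259.1), normalised to d8-arachidonic acid internal standard. Reaction ran 30 min at RT after 15 min RT compound pre-incubation with […] MAGL in TRIS/EDTA/Tween-20 buffer, 2.5% DMSO.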

Compound	IC50 [nM]
O=C(N1CC(CNS(=O)(=O)c2cccc(C(F)(F)F)c2)C1)N1CC2(CC(n3cnc(C4CC4)n3)C2)C1 [Example 246, N-[[1-[6-(3-cyclopropyl-1,2,4-triazol-1-yl)-2-azaspiro[3.3]heptane-2-carbonyl]azetidin-3-yl]methyl]-3-(trifluoromethyl)benzenesul fonamide]	12.2
O=C(N1CC2(CC(n3cnc(C4CC4)n3)C2)C1)N1CC2(C1)CN(S(=O)(=O)NCC1(C(F)(F)F)CC1)C2 [Example 247, 6-[6-(3-cyclopropyl-1,2,4-triazol-1-yl)-2-azaspiro[3.3]heptane-2-carbonyl]-N-[[1-(trifluoromethyl)cyclopropyl]methyl]-2,6-diazaspiro[3.3]heptane-2-sulfonamide]	12.2
O=C(N1CC(Oc2ccc(C(F)(F)F)nn2)C1)N1CC2(CC(n3cnc(C4CC4)n3)C2)C1 [Example 248, [6-(3-cyclopropyl-1,2,4-triazol-1-yl)-2-azaspiro[3.3]heptan-2-yl]−[3-[6-(trifluoromethyl)pyridazin-3-yl]oxyazetidin-1-yl]methanone]	13.4
CC(Oc1cnn(C2CN(C(=O)N3CC4(CC(n5cnc(C6CC6)n5)C4)C3)C2)c1)C(F)(F)F (stereo not drawn) [Example 249, [6-(3-cyclopropyl-1,2,4-triazol-1-yl)-2-azaspiro[3.3]heptan-2-yl]-[3-[4-(2,2,2-trifluoro-1-methyl-ethoxy)pyrazol-1-yl]azetidin-1-yl]methanone]	14.4
O=C(N1CC2(CC(n3cnc(C4CC4)n3)C2)C1)N1CC2(C1)CN(S(=O)(=O)c1cccc3nonc13)C2 [Example 250, [2-(2,1,3-benzoxadiazol-4-ylsulfonyl)-2,6-diazaspiro[3.3]heptan-6-yl]-[6-(3-cyclopropyl-1,2,4-triazol-1-yl)-2-azaspiro[3.3]heptan-2-yl]methanone]	15.1
COc1ccccc1S(=O)(=O)N1CC2(CN(C(=O)N3CC4(CC(n5cnc(C6CC6)n5)C4)C3)C2)C1 [Example 251, [6-(3-cyclopropyl-1,2,4-triazol-1-yl)-2-azaspiro[3.3]heptan-2-yl]-[2-(2-methoxyphenyl)sulfonyl-2,6-diazaspiro[3.3]heptan-6-yl]methanone]	15.5
O=C(N1CC(Oc2cnc(Cl)c(C3CC3)c2)C1)N1CC2(CC(n3cnc(C4CC4)n3)C2)C1 [Example 254, [3-[(6-chloro-5-cyclopropyl-3-pyridyl)oxy]azetidin-1-yl]-[6-(3-cyclopropyl-1,2,4-triazol-1-yl)-2-azaspiro[3.3]heptan-2-yl]methanone]	17
NS(=O)(=O)c1ccccc1CN1CC2(C1)CN(C(=O)N1CC3(CC(n4cnc(C5CC5)n4)C3)C1)C2 [Example 257, 2-[[2-[6-(3-cyclopropyl-1,2,4-triazol-1-yl)-2-azaspiro[3.3]heptane-2-carbonyl]-2,6-diazaspiro[3.3]heptan-6-yl]methyl] benzenesulfonamide]	18
O=C(N1CC2(CC(n3cnc(C4CC4)n3)C2)C1)N1CC2(CN(Cc3ncc(F)cc3F)C2)C1 [Example 258, [6-(3-cyclopropyl-1,2,4-triazol-1-yl)-2-azaspiro[3.3]heptan-2-yl]-[6-[(3,5-difluoro-2-pyridyl)methyl]-2,6-diazaspiro[3.3]heptan-2-yl]methanone]	19.4
O=C(N1CCC(CNS(=O)(=O)c2ccc(OC(F)(F)F)cc2)CC1)N1CC2(CC(n3cnc(C4CC4)n3)C2)C1 [Example 259, N-[[1-[6-(3-cyclopropyl-1,2,4-triazol-1-yl)-2-azaspiro[3.3]heptane-2-carbonyl]-4-piperidyl]methyl]-4-(trifluoromethoxy) benzenesulfonamide]	21.8
O=C(N1CC(NCc2ccc(C(F)(F)F)cc2F)C1)N1CC2(CC(n3cnc(C4CC4)n3)C2)C1 [Example 262, [6-(3-cyclopropyl-1,2,4-triazol-1-yl)-2-azaspiro[3.3]heptan-2-yl]-[3-[[2-fluoro-4-(trifluoromethyl)phenyl]methylamino]azetidin-1-yl]methanone]	25.2
CS(=O)(=O)c1ccc(COC2CN(C(=O)N3CC4(CC(n5cnc(C6CC6)n5)C4)C3)C2)c(F)c1 [Example 266, [6-(3-cyclopropyl-1,2,4-triazol-1-yl)-2-azaspiro[3.3]heptan-2-yl]-[3-[(2-fluoro-4-methylsulfonyl-phenyl)methoxy]azetidin-1-yl]methanone]	29
O=C(N1CC2(CC(Nc3ccc(C(F)(F)F)nn3)C2)C1)N1CC2(CC(n3cnc(C4CC4)n3)C2)C1 [Example 267, [6-(3-cyclopropyl-1,2,4-triazol-1-yl)-2-azaspiro[3.3]heptan-2-yl]-[6-[[6-(trifluoromethyl)pyridazin-3-yl]amino]-2-azaspiro[3.3]heptan-2-yl]methanone]	30.7
CC1(NS(=O)(=O)N2CC3(CN(C(=O)N4CC5(CC(n6cnc(C7CC7)n6)C5)C4)C3)C2)CC1 [Example 269, 6-[6-(3-cyclopropyl-1,2,4-triazol-1-yl)-2-azaspiro[3.3]heptane-2-carbonyl]-N-(1-methylcyclopropyl)-2,6-diazaspiro[3.3]heptane-2-sulfonamide]	32.2
O=C(N1CC2(CC(n3cnc(C4CC4)n3)C2)C1)N1CC2(C1)CN(S(=O)(=O)CCc1ccc(F)cc1)C2 [Example 272, [6-(3-cyclopropyl-1,2,4-triazol-1-yl)-2-azaspiro[3.3]heptan-2-yl]-[2-[2-(4-fluorophenyl)ethylsulfonyl]-2,6-diazaspiro[3.3]heptan-6-yl]methanone]	34.3

Continued, values first:

IC50 [nM]	Compound
16.1	O=C(N1CC(c2ccc(C3(c4nnn[nH]4)CC3)cc2)C1)N1CC2(CC(n3cnc(C4CC4)n3)C2)C1 [Example 252, [6-(3-cyclopropyl-1,2,4-triazol-1-yl)-2-azaspiro[3.3]heptan-2-yl]-[3-[4-[1-(1H-tetrazol-5-yl)cyclopropyl]phenyl]azetidin-1-yl]methanone]
16.2	O=C(N1CCC(CNS(=O)(=O)c2ccc(C(F)(F)F)cc2)CC1)N1CC2(CC(n3cnc(C4CC4)n3)C2)C1 [Example 253]
17.2	O=C(N1CC2(CC(n3cnc(C4CC4)n3)C2)C1)N1CC2(C1)CN(S(=O)(=O)c1ccc(C(F)(F)F)nc1)C2 [Example 255, [6-(3-cyclopropyl-1,2,4-triazol-1-yl)-2-azaspiro[3.3]heptan-2-yl]-[2-[[6-(trifluoromethyl)-3-pyridyl]sulfonyl]-2,6-diazaspiro[3.3]heptan-6-yl]methanone]
17.3	O=C(N1CC2(CC(n3cnc(C4CC4)n3)C2)C1)N1CC2(C1)CN(S(=O)(=O)NCc1ccc(F)cc1)C2 [Example 256, 6-[6-(3-cyclopropyl-1,2,4-triazol-1-yl)-2-azaspiro[3.3]heptane-2-carbonyl]-N-[(4-fluorophenyl)methyl]-2,6-diazaspiro[3.3]heptane-2-sulfonamide]
23.1	O=C(N1CC2(CC(n3cnc(C4CC4)n3)C2)C1)N1CC2(C1)CN(S(=O)(=O)NC1(C(F)(F)F)CC1)C2 [Example 260, 6-[6-(3-cyclopropyl-1,2,4-triazol-1-yl)-2-azaspiro[3.3]heptane-2-carbonyl]-N-[1-(trifluoromethyl)cyclopropyl]-2,6-diazaspiro[3.3]heptane-2-sulfonamide]
24.2	O=C(N1CC(c2ccn(CC(F)(F)F)c(=O)c2)C1)N1CC2(CC(n3cnc(C4CC4)n3)C2)C1 [Example 261, 4-[1-[6-(3-cyclopropyl-1,2,4-triazol-1-yl)-2-azaspiro[3.3]heptane-2-carbonyl]azetidin-3-yl]-1-(2,2,2-trifluoroethyl)pyridin-2-one]
27.2	O=C(N1CC2(CC(n3cnc(C4CC4)n3)C2)C1)N1CC2(C1)CN(S(=O)(=O)c1cnccc1C(F)(F)F)C2 [Example 263, [6-(3-cyclopropyl-1,2,4-triazol-1-yl)-2-azaspiro[3.3]heptan-2-yl]-[2-[[4-(trifluoromethyl)-3-pyridyl]sulfonyl]-2,6-diazaspiro[3.3]heptan-6-yl]methanone]
27.2	COC(=O)c1ccccc1S(=O)(=O)N1CC2(CN(C(=O)N3CC4(CC(n5cnc(C6CC6)n5)C4)C3)C2)C1 [Example 264, methyl 2-[[6-[6-(3-cyclopropyl-1,2,4-triazol-1-yl)-2-azaspiro[3.3]heptane-2-carbonyl]-2,6-diazaspiro[3.3]heptan-2-yl]sulfonyl]benzoate]
27.5	O=C(N1CC2(CC(n3cnc(C4CC4)n3)C2)C1)N1CC2(C1)CN(S(=O)(=O)Cc1ccccc1)C2 [Example 265, (2-benzylsulfonyl-2,6-diazaspiro[3.3]heptan-6-yl)-[6-(3-cyclopropyl-1,2,4-triazol-1-yl)-2-azaspiro[3.3]heptan-2-yl]methanone]
32.1	O=C(N1CC2(CC(n3cnc(C4CC4)n3)C2)C1)N1CC2(C1)CN(S(=O)(=O)c1cncc(C(F)(F)F)c1)C2 [Example 268, [6-(3-cyclopropyl-1,2,4-triazol-1-yl)-2-azaspiro[3.3]heptan-2-yl]-[2-[[5-(trifluoromethyl)-3-pyridyl]sulfonyl]-2,6-diazaspiro[3.3]heptan-6-yl]methanone]
32.7	O=C(N1CC(Oc2ccc(C(F)(F)F)nc2)C1)N1CC2(CC(n3cnc(C4CC4)n3)C2)C1 [Example 270, (6-(3-cyclopropyl-1H-1,2,4-triazol-1-yl)-2-azaspiro[3.3]heptan-2-yl)(3-((6-(trifluoromethyl)pyridin-3-yl)oxy)azetidin-1-yl)methanone]
33.8	O=C(N1CCC(CNS(=O)(=O)c2ccc(Cl)cc2)CC1)N1CC2(CC(n3cnc(C4CC4)n3)C2)C1 [Example 271]
